Measured values taken from patent US8192962B2, “Processes for detecting toxic substances” (Daikin Industries, Ltd., priority 2001, dated 2012).

Test system: Energy system protein genes
Test: DNA chip mRNA expression in yeast, energy system protein genes (Table 4)
Type: cell-based, Saccharomyces cerevisiae S288C
How it was run: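 S. cerevisiae S288C grown at 25° C. in YPD to log phase, then exposed 2 h to a toxicant at a growth-inhibiting, non-lethal concentration; untreated cells as control. Poly(A) mRNA reverse-transcribed with Cy3-dUTP or Cy5-dUTP, hybridized >12 h at 65° C. to whole-genome yeast DNA chip; value = fluorescence ratio treated/untreated.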

`CCCCCCCCCCCCc1ccc(S(=O)(=O)[O-])cc1.[Na+]` [(17), sodium dodecylbenzosulfonate] was tested, and the “The level of expressed mRNA in the presence of chemical substance/The level of expressed mRNA in the absence of chemical substance” value (yeast gene YJR048W) was 1.2, the “The level of expressed mRNA in the presence of chemical substance/The level of expressed mRNA in the absence of chemical substance” value (yeast gene YJR121W, cells incubated two hours with the chemical substance) was 1.1 and the “The level of expressed mRNA in the presence of chemical substance/The level of expressed mRNA in the absence of chemical substance” value (yeast gene YJR155W) was 1.3. The “The level of expressed mRNA in the presence of chemical substance/The level of expressed mRNA in the absence of chemical substance” value (yeast gene YKL016C, cells incubated two hours with the chemical substance) was 1.0, the “The level of expressed mRNA in the presence of chemical substance/The level of expressed mRNA in the absence of chemical substance” value (yeast gene YKL060C, cells incubated two hours with the chemical substance) was 1.2 and the “The level of expressed mRNA in the presence of chemical substance/The level of expressed mRNA in the absence of chemical substance” value (yeast gene YKL141W, cells incubated two hours with the chemical substance) was 0.9. For the same compound, the “The level of expressed mRNA in the presence of chemical substance/The level of expressed mRNA in the absence of chemical substance” value (yeast gene YKL148C, cells incubated two hours with the chemical substance) was 0.8, the “The level of expressed mRNA in the presence of chemical substance/The level of expressed mRNA in the absence of chemical substance” value (yeast gene YKR009C, cells incubated two hours with the chemical substance) was 1.9 and the “The level of expressed mRNA in the presence of chemical substance/The level of expressed mRNA in the absence of chemical substance” value (yeast gene YKR058W, cells incubated two hours with the chemical substance, 25° C., YPD medium) was 0.8. The “The level of expressed mRNA in the presence of chemical substance/The level of expressed mRNA in the absence of chemical substance” value (yeast gene YKR097W) was 1.1, the “The level of expressed mRNA in the presence of chemical substance/The level of expressed mRNA in the absence of chemical substance” value (yeast gene YLL041C, cells incubated two hours with the chemical substance) was 1.1 and the “The level of expressed mRNA in the presence of chemical substance/The level of expressed mRNA in the absence of chemical substance” value (yeast gene YLR038C, cells incubated two hours with the chemical substance) was 1.2. The “The level of expressed mRNA in the presence of chemical substance/The level of expressed mRNA in the absence of chemical substance” value (yeast gene YLR044C, cells incubated two hours with the chemical substance) was 0.9, the “The level of expressed mRNA in the presence of chemical substance/The level of expressed mRNA in the absence of chemical substance” value (yeast gene YLR134W, cells incubated two hours with the chemical substance) was 0.6 and the “The level of expressed mRNA in the presence of chemical substance/The level of expressed mRNA in the absence of chemical substance” value (yeast gene YLR258W, cells incubated two hours with the chemical substance) was 1.0. For the same compound, the “The level of expressed mRNA in the presence of chemical substance/The level of expressed mRNA in the absence of chemical substance” value (yeast gene YLR284C, cells incubated two hours with the chemical substance) was 2.9, the “The level of expressed mRNA in the presence of chemical substance/The level of expressed mRNA in the absence of chemical substance” value (yeast gene YLR295C, cells incubated two hours with the chemical substance, 25° C., YPD medium) was 0.9 and the “The level of expressed mRNA in the presence of chemical substance/The level of expressed mRNA in the absence of chemical substance” value (yeast gene YLR304C, cells incubated two hours with the chemical substance) was 0.5. For the same compound, the “The level of expressed mRNA in the presence of chemical substance/The level of expressed mRNA in the absence of chemical substance” value (yeast gene YLR345W) was 1.2, the “The level of expressed mRNA in the presence of chemical substance/The level of expressed mRNA in the absence of chemical substance” value (yeast gene YLR354C, cells incubated two hours with the chemical substance) was 1.0 and the “The level of expressed mRNA in the presence of chemical substance/The level of expressed mRNA in the absence of chemical substance” value (yeast gene YLR377C, cells incubated two hours with the chemical substance) was 0.9. The “The level of expressed mRNA in the presence of chemical substance/The level of expressed mRNA in the absence of chemical substance” value (yeast gene YLR395C, cells incubated two hours with the chemical substance) was 1.2, the “The level of expressed mRNA in the presence of chemical substance/The level of expressed mRNA in the absence of chemical substance” value (yeast gene YML087C) was 0.7 and the “The level of expressed mRNA in the presence of chemical substance/The level of expressed mRNA in the absence of chemical substance” value (yeast gene YML120C, cells incubated two hours with the chemical substance) was 1.0. The “The level of expressed mRNA in the presence of chemical substance/The level of expressed mRNA in the absence of chemical substance” value (yeast gene YML129C, cells incubated two hours with the chemical substance) was 1.3, the “The level of expressed mRNA in the presence of chemical substance/The level of expressed mRNA in the absence of chemical substance” value (yeast gene YMR073C, cells incubated two hours with the chemical substance) was 0.8 and the “The level of expressed mRNA in the presence of chemical substance/The level of expressed mRNA in the absence of chemical substance” value (yeast gene YMR118C) was 0.8. For the same compound, the “The level of expressed mRNA in the presence of chemical substance/The level of expressed mRNA in the absence of chemical substance” value (yeast gene YMR205C, cells incubated two hours with the chemical substance) was 0.6, the “The level of expressed mRNA in the presence of chemical substance/The level of expressed mRNA in the absence of chemical substance” value (yeast gene YMR261C, cells incubated two hours with the chemical substance) was 0.7 and the “The level of expressed mRNA in the presence of chemical substance/The level of expressed mRNA in the absence of chemical substance” value (yeast gene YMR267W, cells incubated two hours with the chemical substance, 25° C., YPD medium) was 0.9. The “The level of expressed mRNA in the presence of chemical substance/The level of expressed mRNA in the absence of chemical substance” value (yeast gene YMR323W, cells incubated two hours with the chemical substance) was 1.1, the “The level of expressed mRNA in the presence of chemical substance/The level of expressed mRNA in the absence of chemical substance” value (yeast gene YNL071W) was 1.0 and the “The level of expressed mRNA in the presence of chemical substance/The level of expressed mRNA in the absence of chemical substance” value (yeast gene YNL202W, cells incubated two hours with the chemical substance) was 2.4. The “The level of expressed mRNA in the presence of chemical substance/The level of expressed mRNA in the absence of chemical substance” value (yeast gene YNL241C) was 1.0, the “The level of expressed mRNA in the presence of chemical substance/The level of expressed mRNA in the absence of chemical substance” value (yeast gene YNL331C) was 1.7 and the “The level of expressed mRNA in the presence of chemical substance/The level of expressed mRNA in the absence of chemical substance” value (yeast gene YOL086C, cells incubated two hours with the chemical substance) was 1.1. The “The level of expressed mRNA in the presence of chemical substance/The level of expressed mRNA in the absence of chemical substance” value (yeast gene YOL165C) was 1.6, the “The level of expressed mRNA in the presence of chemical substance/The level of expressed mRNA in the absence of chemical substance” value (yeast gene YOR142W, cells incubated two hours with the chemical substance) was 0.9 and the “The level of expressed mRNA in the presence of chemical substance/The level of expressed mRNA in the absence of chemical substance” value (yeast gene YOR178C, cells incubated two hours with the chemical substance) was 1.0. The “The level of expressed mRNA in the presence of chemical substance/The level of expressed mRNA in the absence of chemical substance” value (yeast gene YOR388C, cells incubated two hours with the chemical substance) was 1.0, the “The level of expressed mRNA in the presence of chemical substance/The level of expressed mRNA in the absence of chemical substance” value (yeast gene YPL031C, cells incubated two hours with the chemical substance) was 1.4 and the “The level of expressed mRNA in the presence of chemical substance/The level of expressed mRNA in the absence of chemical substance” value (yeast gene YPL061W, cells incubated two hours with the chemical substance) was 1.6. For the same compound, the “The level of expressed mRNA in the presence of chemical substance/The level of expressed mRNA in the absence of chemical substance” value (yeast gene YPL088W) was 9.1, the “The level of expressed mRNA in the presence of chemical substance/The level of expressed mRNA in the absence of chemical substance” value (yeast gene YPL171C) was 2.4 and the “The level of expressed mRNA in the presence of chemical substance/The level of expressed mRNA in the absence of chemical substance” value (yeast gene YPL240C) was 0.8. The “The level of expressed mRNA in the presence of chemical substance/The level of expressed mRNA in the absence of chemical substance” value (yeast gene YPL262W, cells incubated two hours with the chemical substance) was 1.1, the “The level of expressed mRNA in the presence of chemical substance/The level of expressed mRNA in the absence of chemical substance” value (yeast gene YPL275W, cells incubated two hours with the chemical substance) was 1.0 and the “The level of expressed mRNA in the presence of chemical substance/The level of expressed mRNA in the absence of chemical substance” value (yeast gene YPL276W, cells incubated two hours with the chemical substance) was 1.1. The “The level of expressed mRNA in the presence of chemical substance/The level of expressed mRNA in the absence of chemical substance” value (yeast gene YPR048W, cells incubated two hours with the chemical substance) was 0.7 and the “The level of expressed mRNA in the presence of chemical substance/The level of expressed mRNA in the absence of chemical substance” value (yeast gene YPR184W, cells incubated two hours with the chemical substance) was 1.0.
